Assay [1] can be described thus: Antiamnesic activity in the mouse (step-down passive avoidance, amnesia induced by ECS). The assay is classed as in vivo, mouse (CD1 male).
Assay [2] can be described thus: Memory-enhancement activity in the passive avoidance test in the rat. The assay is classed as in vivo, rat (male Wistar).
A short description of assay [3]: Antagonism of the amnesic effect induced by scopolamine in the passive avoidance test in the rat. Type of assay: in vivo. Conditions: for % Effect vs controls / Latency (STL): FS + SCOP. Here is the method: 4) Antagonism of the amnesic effect induced by scopolamine in the "passive avoidance" test in the rat.
The shuttle box equipment was used for passive avoidance as described in Experiment 2 with the following modifications: the compounds (or physiological solutions for the control group) were administered intraperitoneally (IP) 45 min before the training, whereas scopolamine (SCOP) was administered 30 min before the training. The foot shock (FS) consisted of a 0.2 mA shock of 5 sec duration.
The retest to determine memory was executed 24 h after the training. In each individual experiment, the following groups were used: a control group (-FS), a control group (+FS), a control group (FS+SCOP), 3 treatment groups with different doses of the product under test (FS+SCOP).

Where [4] appears, read: Mus musculus, po, 24 h, read-out: Reversal of the amnesia (% vs controls), as the increase in the Step Down Latency.
Setting [5] is: Rattus norvegicus, ip, 96 h, read-out: % variation vs controls (FS) in step through latency.

Molecules are shown by their SMILES.

Regarding `Nc1c2c(nc3ccccc13)CCCC2` [Tacrine, reference compound], the change in vivo at 0.1 mg/kg in assay [1] (setting [4]) came to 10%; in assay [2] (setting [5]) it was 7%. Besides, the values for the change in vivo at 1 mg/kg in assay [1] (setting [4]) and in assay [2] (setting [5]) were 9% and 6%, respectively. The change in vivo at 3 mg/kg in assay [1] (setting [4]) came out at 20%. Further, the change in vivo at 10 mg/kg came to 9% in assay [1] (setting [4]) and 12% in assay [2] (setting [5]). Also, the “Antiamnesic activity (in words)” value in assay [1] (OS, mouse) is “inactive”. Moreover, the “Activity in increasing the avoidance time (in words)” value in assay [2] (rat, IP, retest on the 4th day) is “inactive”. Also, the “% Effect vs controls” value in assay [3] (0.3 mg/kg IP) is listed as 0%; in assay [3] (1 mg/kg IP) it was 41.1%; in assay [3] (3 mg/kg IP) it was 49.2%; in assay [3] (10 mg/kg IP), 64.8%. In addition, the “Latency (STL)” value in assay [3] (0.3 mg/kg IP) worked out at 59.7 s; in assay [3] (1 mg/kg IP) it was 73.1 s; in assay [3] (3 mg/kg IP) it was 75.3 s; in assay [3] (10 mg/kg IP) it was 79.5 s. Also, the ED50 in assay [3] (Rattus norvegicus, ip, 24 h, read-out: ID50 (dose antagonizing the amnesic effect of scopolamine by 50%)) was 3.4 mg/kg.
